Data from US10576101B2, “Roneparstat combined therapy of multiple myeloma” (Leadiant Biosciences SA, priority 2015, dated 2020).
Read-outs that look alike come from different tables or passages of the source.

Key:
CAG HPSE high cells [1] = experiment: Experimental metastasis model of myeloma, roneparstat in vivo combination with bortezomib; design: species or system Mouse, CB. 17/Icr SCID; conditions: roneparstat 120 mg/kg/day s.c., bortezomib 0.5 mg/kg/twice a week i.p., two weeks, serum Day 21
[2] = tested on: a variety of cancer cell types; conditions: cited from earlier work
[3] = tested on: nonclinical tumor models, including multiple myeloma; conditions: cited from earlier work
HPSE-high cells = experiment: Cell viability by MTT assay, roneparstat with carfilzomib; type: cell-based, human; conditions: roneparstat 6.75 μM or carfilzomib 15 nM alone
Excerpt: CAG human myeloma cell line was established at the Myeloma Institute for Research and Therapy (Little Rock, Ark.). CAG cells with modified levels of heparanase expression have been extensively characterized and include (a) heparanase-low (HPSE-low) cells prepared by transfection with empty vector; and (b) heparanase-high (HPSE-high) cells prepared by transfection with vector containing the cDNA for human heparanase. Although HPSE-high cells express a 4-fold higher level of heparanase than do the HPSE-low cells, the elevated levels of enzyme activity present in HPSE-high cells are in the same range as that present in the bone marrow of many myeloma patients (Kelly T. et al, Cancer Res 2003; 63:8749-56). […] The preparation of the CAG-HPSE high cells is described in Yang Y, et al, The Journal Of Biological Chemistry, Vol. 282, No. 18, pp. 13326-13333, May 4, 2007 (see in particular page 13327, left column, the paragraph beginning with “For transfections . . . ”).
HPSE-high cells were seeded in serum free media overnight and then treated with 6.75 μM roneparstat (Rone) for 6 hours, washed and then treated with carfilzomib (CFZ) (15 nM) for 14 hours and viability was assessed by MTT assay. The MTT assay is a colorimetric assay for assessing cell viability, which takes its name from tetrazolium dye MTT (3-(4,5-dimethylthiazol-2-yl)-2,5-diphenyltetrazolium bromide). […]

[4] = tested on: models of multiple myeloma, hematologic, and solid tumors; conditions: cited from earlier work
proteasome = conditions: in animals; cited from earlier work
[5] = tested on: solid and hematologic tumor cells; conditions: cited from earlier work
CAG HPSE high cells [6] = type: in vivo, Mouse, CB. 17/Icr SCID
CAG HPSE high cells [7] = type: in vivo, Mouse, CB. 17/Icr SCID; remark: listed apart in the source
multiple myeloma = conditions: high-dose 200 mg/m^2 followed by ASCT after VAD induction, patients younger than 65 years; cited from earlier work
diabetic nephropathy = conditions: mouse models of diabetic nephropathy; cited from earlier work
[8] = roneparstat 60 mg/kg/day s.c., melphalan 1 mg/kg/week i.p., two weeks, serum Day 21

Compound: CC(C)C[C@H](NC(=O)[C@H](Cc1ccccc1)NC(=O)c1cnccn1)B(O)O [Bortezomib]
- % of animals with kappa levels (above detection limit) (CAG HPSE high cells [1]): 75%
- animals with detectable levels of human immunoglobulin light chain (detectable tumor burden) (CAG HPSE high cells [1]): 8/10
- cytotoxicity in vitro [2]: cytotoxic
- tumor growth in vivo [3]: causes a delay in tumor growth

Compound: CC(C)C[C@H](NC(=O)[C@H](CCc1ccccc1)NC(=O)CN1CCOCC1)C(=O)N[C@@H](Cc1ccccc1)C(=O)N[C@@H](CC(C)C)C(=O)[C@@]1(C)CO1 [Carfilzomib, (2S)—N—((S)-1-((S)-4-methyl-1-((R)-2-methyloxiran2-yl)-1-oxopentan-2-ylcarbamoyl)-2-phenylethyl)-2-((S)-2-(2-morpholinoacetamido)4-phenylbutanamido)-4-methylpentanamide]
- decrease of viability (MTT), agent administered alone (HPSE-high cells): neither roneparstat or carfilzomib provided significant results
- tumor growth [4]: delayed tumor growth
- proteasome activity in blood and tissue (proteasome): inhibited proteasome activity
- antiproliferative and proapoptotic activities in vitro [5]: had antiproliferative and proapoptotic activities

Compound: N[C@@H](Cc1ccc(N(CCCl)CCCl)cc1)C(=O)O [Melphalan]
- % of animals with kappa levels (above detection limit) (CAG HPSE high cells [6]; [8]): 70%
- animals with detectable levels of human immunoglobulin light chain (detectable tumor burden) (CAG HPSE high cells [6]; [8]): 7/10
- animals with detectable tumor burden (CAG HPSE high cells [7]; after initial melphalan treatment, PBS for the next two weeks): 7/11
- survival (multiple myeloma): 5 years

Compound: Roneparstat
- % of animals with kappa levels (above detection limit) (CAG HPSE high cells [1]): 70%
- animals with detectable levels of human immunoglobulin light chain (detectable tumor burden) (CAG HPSE high cells [1]): 6/8
- decrease of viability (MTT), agent administered alone (HPSE-high cells): neither roneparstat or carfilzomib provided significant results
- % of animals with kappa levels (above detection limit) (CAG HPSE high cells [6]; mouse, in vivo): 89%
- animals with detectable levels of human immunoglobulin light chain (detectable tumor burden) (CAG HPSE high cells [6]; mouse, in vivo): 8/9
- animals with detectable tumor burden (CAG HPSE high cells [7]; mouse, in vivo): 3/10
- extent of albuminuria and renal damage (diabetic nephropathy): markedly decreased
